pIC50: −log10 of the molar value.
Biological target: Serotonin 5-HT7 Receptors (Homo sapiens (Human), UniProt P34969)
Test: Radiolabel Binding Studies for Serotonin 5-HT7 Receptors, Method 2 ([3H]-5HT competition; Ki and percent inhibition at 10 μM)
Settings: @ 10 μM single concentration; read-out: 5-HT7 percent inhibition of radioligand binding
Description: Radiolabel Binding Studies for Serotonin 5-HT7 Receptors, Method 2:
A solution of the compound of the disclosure to be tested is prepared as a 1-mg/ml stock in Assay Buffer or DMSO according to its solubility. A similar stock of the reference compound chlorpromazine is also prepared as a positive control. Eleven dilutions (5×assay concentration) of the compound of the disclosure and chlorpromazine are prepared in the Assay Buffer by serial dilution to yield final corresponding assay concentrations ranging from 10 pM to 10 μM.
A stock concentration of 5 nM [^3H]-5-Hydroxytryptamine ([^3H]-5HT) is prepared in 50 mM Tris-HCl, 10 mM MgCl2, 1 mM EDTA, pH 7.4 (Assay Buffer). Aliquots (50 μl) of radioligand are dispensed into the wells of a 96-well plate containing […] of Assay Buffer. Duplicate 50-μl aliquots of the compound of the disclosure test and chlorpromazine positive control reference compound serial dilutions are added.
Membrane fractions of cells expressing recombinant 5HT7 receptors (50 μL) are dispensed into each well. The membranes are prepared from stably transfected cell lines expressing 5HT7 receptors cultured on 10-cm plates by harvesting PBS-rinsed monolayers, resuspending and lysing in chilled, hypotonic 50 mM Tris-HCl, pH 7.4, centrifuging at 20,000×g, decanting the supernatant and storing at −80° C.; the membrane preparations are resuspended in 3 ml of chilled Assay Buffer and homogenized by several passages through a 26 gauge needle before using in the assay.
The 250-μl reactions are incubated at room temperature for 1.5 hours, then harvested by rapid filtration onto 0.3% polyethyleneimine-treated, 96-well filter mats using a 96-well Filtermate harvester. Four rapid 500-μl washes are performed with chilled Assay Buffer to reduce non-specific binding. The filter mats are dried, then scintillant is added to the filters and the radioactivity retained on the filters is counted in a Microbeta scintillation counter.
Raw data (dpm) representing total radioligand binding (i.e., specific+non-specific binding) are plotted as a function of the logarithm of the molar concentration of the competitor (i.e., test or reference compound). Non-linear regression of the normalized (i.e., percent radioligand binding compared to that observed in the absence of test or reference compound) raw data is performed in Prism 4.0 (GraphPad Software) using the built-in three parameter logistic model describing ligand competition binding to radioligand-labeled sites: y=bottom+[(top−bottom)/(1+10x−log IC50)] where bottom equals the residual radioligand binding measured in the presence of 10 μM reference compound (i.e., non-specific binding) and top equals the total radioligand binding observed in the absence of competitor. The log IC50 (i.e., the log of the ligand concentration that reduces radioligand binding by 50%) is thus estimated from the data and used to obtain the Ki by applying the Cheng-Prusoff approximation: Ki=IC50/(1+[ligand]/KD) where [ligand] equals the assay radioligand concentration and KD equals the affinity constant of the radioligand for the target receptor.
Compounds of the disclosure are also screened at a single concentration of 10 μM using the same method described for the Radiolabel Binding Studies for Serotonin 5HT7 receptors to determine the percent inhibition of [^3H]-5HT binding.

Serotonin 5-HT7 Receptors, sequence (P34969 whole entry): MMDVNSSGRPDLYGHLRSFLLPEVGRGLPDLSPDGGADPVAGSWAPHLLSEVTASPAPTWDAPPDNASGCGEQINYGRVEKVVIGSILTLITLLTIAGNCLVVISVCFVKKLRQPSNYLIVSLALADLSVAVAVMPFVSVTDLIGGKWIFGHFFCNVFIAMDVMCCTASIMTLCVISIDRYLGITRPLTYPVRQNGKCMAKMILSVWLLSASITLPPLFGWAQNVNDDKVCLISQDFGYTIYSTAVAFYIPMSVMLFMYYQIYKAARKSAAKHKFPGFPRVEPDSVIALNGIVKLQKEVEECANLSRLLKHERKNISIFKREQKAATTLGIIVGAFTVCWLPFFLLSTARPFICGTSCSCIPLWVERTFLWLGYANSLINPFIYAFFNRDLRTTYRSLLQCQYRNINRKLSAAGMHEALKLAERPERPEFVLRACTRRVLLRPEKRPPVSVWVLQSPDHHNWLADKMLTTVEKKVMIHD

SMILES | inhibition at 10 µM [%]
CCC1(CC)CC(CCN2CC3CN(c4cccc(C#N)c4)CC3C2)OC1=O (stereo not shown) [Entry 8] | 48.9
CCC1(CC)CC(CCN2CC3CN(c4ccc(OC)cc4)CC3C2)OC1=O (stereo not shown) [Entry 12] | 24.5
CCC1(CC)CC(CCN2CC3CN(c4cccc(O)c4)CC3C2)OC1=O (stereo not shown) [Entry 14] | 39.8
CCC1(CC)CC(CCN2CC3CN(c4ccc(C)cc4)CC3C2)OC1=O (stereo not shown) [Entry 6] | 44.5
CCC1(CC)CC(CCN2CC3CN(c4ccc(C#N)cc4)CC3C2)OC1=O (stereo not shown) [Entry 9] | 26.3

Same assay, conditions: radiolabel binding, 5HT7 receptors

SMILES | pIC50
CCC1(CC)CC(CCN2CC3CN(c4ccccc4C)CC3C2)OC1=O (stereo not shown) [Entry 4] | 6.75
CCC1(CC)CC(CCN2CC3CN(c4ccccc4)CC3C2)OC1=O (stereo not shown) [Entry 1] | 7.19
CCC1(CC)CC(CCN2CC3CN(c4ccccc4C#N)CC3C2)OC1=O (stereo not shown) [Entry 7] | 8.05
CCC1(CC)CC(CCN2CC3CN(c4ccc(O)cc4)CC3C2)OC1=O (stereo not shown) [Entry 15] | 6.89
CC(C)c1ccccc1N1CC2CN(CCC3CC4(CCCCC4)C(=O)O3)CC2C1 (stereo not shown) [Entry 3] | 6.57
CCC1(CC)CC(CCN2CC3CN(c4ccccc4OC)CC3C2)OC1=O (stereo not shown) [Entry 10] | 6.82
CCC1(CC)CC(CCN2CC3CN(c4ccccc4N4CCOCC4)CC3C2)OC1=O (stereo not shown) [Entry 16] | 6.80
CCC1(CC)CC(CCN2CC3CN(c4cccc(OC)c4)CC3C2)OC1=O (stereo not shown) [Entry 11] | 6.04
CCC1(CC)CC(CCN2CC3CN(c4ccccc4O)CC3C2)OC1=O (stereo not shown) [Entry 13] | 6.64
CCC1(CC)CC(CCN2CC3CN(c4ccccc4C(C)C)CC3C2)OC1=O (stereo not shown) [Entry 2] | 6.56
CCC1(CC)CC(CCN2CC3CN(c4cccc(C)c4)CC3C2)OC1=O (stereo not shown) [Entry 5] | 6.98
